These results are taken from patent publication EP2603503B1, “DABIGATRAN ETEXILATE BISMESYLATE SALT, SOLID STATE FORMS AND PROCESS FOR PREPARATION THEREOF” (ratiopharm GmbH, priority 2010, dated 2012).

One data set is described as follows: solubility in water. Type of data set: physicochemical.
Data set [1] can be described thus: storage stability (temperature / relative humidity). Type of data set: physicochemical. The settings on record: at least two weeks.
For data set [2] the following is noted: temperature not stated; cited from earlier work.

Values after ≈ are worked out from the molar mass of the structure shown. Counter-ions that a name gives are not always drawn. Like-named read-outs stand apart in the source and are kept apart here.

Regarding `CCCCCCOC(=O)NC(=N)c1ccc(NCc2nc3cc(C(=O)N(CCC(=O)OCC)c4ccccn4)ccc3n2C)cc1` [Dabigatran etexilate bismesylate], the “solubility in water at 37 °C” value in “solubility in water” is 33.9 mg/mL. Also, the stable upon storage entry in data set [1] (about 25°C, relative humidity (RH) about 60%) is reported as “stable”; in data set [1] (about 40°C, RH about 75%), “stable”.
Turning to `CCCCCCOC(=O)NC(=N)c1ccc(NCc2nc3cc(C(=O)N(CCC(=O)OCC)c4ccccn4)ccc3n2C)cc1` [Dabigatran etexilate monomesylate, ethyl 3-{[(2-{[(4-{N'-[(hexyloxy)carbonyl]carbamimidoyl}phenyl)amino]methyl}-1-methyl-1H-benzimid-azol-5-yl)carbonyl] (2-pyridinyl)amino}propanoate mesylate salt, reference compound], in the data set “solubility in water” (mesylate salt), the “solubility in water at 37 °C” value is 14.7 mg/mL.
Take `CCCCCCOC(=O)NC(=N)c1ccc(NCc2nc3cc(C(=O)N(CCC(=O)OCC)c4ccccn4)ccc3n2C)cc1` [Dabigatran etexilate, Ethyl 3-[(2-{[4-(hexyloxycarbonylaminoiminomethyl)phenylamino]methyl}-1-methyl-1H-benzimidazole-5-carbonyl)pyridin-2-ylamino]propionate base]: in data set [2], the solubility in water was 1.8 mg/mL (≈ 2870 µM).
